Experimental data reported in ChEMBL document CHEMBL6096636 (Bioorg Med Chem, 2024).
pIC50: −log10 of the molar value. The source made the active and inactive calls. The calls are words filed in the database; no cut-off is given here.

What was measured:
[1] = Cmax in female Balb/c mouse at 5 mg/kg, ip measured after 24 hrs by LC-MS/MS analysis; format: ADME, organism-based; conditions: in vivo
[2] = system: Plasmodium falciparum; assay: Inhibition of asynchronous ring stage Plasmodium falciparum 3D7 HDAC assessed as increase in histone H3 acetylation level at 20 times of IC50 concentration incubated for 2 hrs by Western blot analysis
[3] = Apparent volume of distribution during terminal phase in female Balb/c mouse at 5 mg/kg, ip measured after 24 hrs by LC-MS/MS analysis; format: ADME, organism-based; conditions: in vivo, read-out: Vz/F
[4] = system: Plasmodium falciparum; assay: microbe, parasite or virus in culture; conditions: Dd2, 72 h
Description: Antimalarial activity against erythrocytic stage of chloroquine-resistant Plasmodium falciparum Dd2 assessed as inhibition of growth incubated for 72 hrs by SYBR green I based assay

[5] = target: T1, Histone deacetylase 8 (Homo sapiens, UniProt Q9BY41); assay: Inhibition of recombinant human HDAC8 using Ac-peptide as substrate preincubated for 15 mins followed by substrate addition for 240 mins and measured after 120 mins of trypsin addition
T1 sequence (Q9BY41 whole entry): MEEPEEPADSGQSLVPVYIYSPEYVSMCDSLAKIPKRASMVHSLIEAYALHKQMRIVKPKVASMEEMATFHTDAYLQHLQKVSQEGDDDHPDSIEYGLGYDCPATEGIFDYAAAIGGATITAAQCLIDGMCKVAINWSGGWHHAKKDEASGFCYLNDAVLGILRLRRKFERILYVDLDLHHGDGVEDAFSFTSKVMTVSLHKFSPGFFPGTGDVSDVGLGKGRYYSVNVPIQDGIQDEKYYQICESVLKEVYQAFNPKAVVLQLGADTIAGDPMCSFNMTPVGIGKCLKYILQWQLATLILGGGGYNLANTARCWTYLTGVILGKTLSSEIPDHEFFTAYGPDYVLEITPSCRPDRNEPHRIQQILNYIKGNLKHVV

[6] = Metabolic stability in mouse liver microsomes assessed as half-life measured upto 45 mins in presence of NADPH by LC-MS/MS analysis; format: ADME, Microsome
[7] = Selectivity index, ratio of IC50 for HEK293T cells to IC50 for erythrocytic stage of Plasmodium falciparum 3D7; format: toxicity, cell-based; conditions: human, read-out: Ratio IC50
[8] = system: Plasmodium falciparum; assay: Antimalarial activity against sulfadoxine-pyrimethamine and mefloquine resistant Plasmodium falciparum clinical isolate CP286 assessed as inhibition of growth incubated for 72 hrs by SYBR green I based assay; format: functional, organism-based
[9] = target: Histone deacetylase 3 (Homo sapiens, UniProt O15379); assay: Inhibition of recombinant human HDAC3 using Ac-peptide as substrate preincubated for 15 mins followed by substrate addition and measured after 60 mins
Histone deacetylase 3, sequence (O15379 whole entry): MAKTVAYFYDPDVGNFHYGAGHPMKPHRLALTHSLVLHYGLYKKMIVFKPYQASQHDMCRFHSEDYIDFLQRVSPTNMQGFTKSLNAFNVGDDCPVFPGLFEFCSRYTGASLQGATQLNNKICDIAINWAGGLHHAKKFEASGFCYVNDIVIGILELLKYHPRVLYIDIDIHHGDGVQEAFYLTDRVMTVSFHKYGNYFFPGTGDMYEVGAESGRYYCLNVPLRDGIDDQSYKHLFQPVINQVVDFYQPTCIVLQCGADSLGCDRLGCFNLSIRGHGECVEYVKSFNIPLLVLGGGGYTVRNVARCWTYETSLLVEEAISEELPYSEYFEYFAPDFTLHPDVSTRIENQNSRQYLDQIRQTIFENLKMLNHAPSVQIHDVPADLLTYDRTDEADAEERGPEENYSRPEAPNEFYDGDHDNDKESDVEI

[10] = AUC (0 to infinity) in female Balb/c mouse at 5 mg/kg, ip measured after 24 hrs by LC-MS/MS analysis; format: ADME, organism-based; conditions: in vivo
[11] = Tmax in female Balb/c mouse at 5 mg/kg, ip measured after 24 hrs by LC-MS/MS analysis; format: ADME, organism-based; conditions: in vivo
[12] = AUC (0 to t) in female Balb/c mouse at 5 mg/kg, ip measured after 24 hrs by LC-MS/MS analysis; format: ADME, organism-based; conditions: in vivo
[13] = Metabolic stability in mouse liver microsomes assessed as clearance measured upto 45 mins in presence of NADPH by LC-MS/MS analysis; format: ADME, Microsome; conditions: read-out: CLH
[14] = system: Plasmodium yoelii; assay: Antimalarial activity against erythrocytic stage of Plasmodium yoelli infected in female mouse model assessed as reduction in parasitemia at 30 mg/kg, ip pre-infected with parasite followed by twice daily compound administration from day 3 to 6 by microscopic analysis; format: functional, organism-based; conditions: time 4.0 day
[15] = system: Plasmodium falciparum; assay: microbe, parasite or virus in culture; conditions: 72 h
Description: Antimalarial activity against quinine and chloroquine resistant Plasmodium falciparum clinical isolate C2A assessed as inhibition of growth incubated for 72 hrs by SYBR green I based assay

[16] = target: T2, Protein deacetylase HDAC6 (Homo sapiens, UniProt Q9UBN7); assay: Inhibition of recombinant human HDAC6 using Ac-peptide as substrate preincubated for 15 mins followed by substrate addition and measured after 60 mins
T2 sequence (Q9UBN7 whole entry): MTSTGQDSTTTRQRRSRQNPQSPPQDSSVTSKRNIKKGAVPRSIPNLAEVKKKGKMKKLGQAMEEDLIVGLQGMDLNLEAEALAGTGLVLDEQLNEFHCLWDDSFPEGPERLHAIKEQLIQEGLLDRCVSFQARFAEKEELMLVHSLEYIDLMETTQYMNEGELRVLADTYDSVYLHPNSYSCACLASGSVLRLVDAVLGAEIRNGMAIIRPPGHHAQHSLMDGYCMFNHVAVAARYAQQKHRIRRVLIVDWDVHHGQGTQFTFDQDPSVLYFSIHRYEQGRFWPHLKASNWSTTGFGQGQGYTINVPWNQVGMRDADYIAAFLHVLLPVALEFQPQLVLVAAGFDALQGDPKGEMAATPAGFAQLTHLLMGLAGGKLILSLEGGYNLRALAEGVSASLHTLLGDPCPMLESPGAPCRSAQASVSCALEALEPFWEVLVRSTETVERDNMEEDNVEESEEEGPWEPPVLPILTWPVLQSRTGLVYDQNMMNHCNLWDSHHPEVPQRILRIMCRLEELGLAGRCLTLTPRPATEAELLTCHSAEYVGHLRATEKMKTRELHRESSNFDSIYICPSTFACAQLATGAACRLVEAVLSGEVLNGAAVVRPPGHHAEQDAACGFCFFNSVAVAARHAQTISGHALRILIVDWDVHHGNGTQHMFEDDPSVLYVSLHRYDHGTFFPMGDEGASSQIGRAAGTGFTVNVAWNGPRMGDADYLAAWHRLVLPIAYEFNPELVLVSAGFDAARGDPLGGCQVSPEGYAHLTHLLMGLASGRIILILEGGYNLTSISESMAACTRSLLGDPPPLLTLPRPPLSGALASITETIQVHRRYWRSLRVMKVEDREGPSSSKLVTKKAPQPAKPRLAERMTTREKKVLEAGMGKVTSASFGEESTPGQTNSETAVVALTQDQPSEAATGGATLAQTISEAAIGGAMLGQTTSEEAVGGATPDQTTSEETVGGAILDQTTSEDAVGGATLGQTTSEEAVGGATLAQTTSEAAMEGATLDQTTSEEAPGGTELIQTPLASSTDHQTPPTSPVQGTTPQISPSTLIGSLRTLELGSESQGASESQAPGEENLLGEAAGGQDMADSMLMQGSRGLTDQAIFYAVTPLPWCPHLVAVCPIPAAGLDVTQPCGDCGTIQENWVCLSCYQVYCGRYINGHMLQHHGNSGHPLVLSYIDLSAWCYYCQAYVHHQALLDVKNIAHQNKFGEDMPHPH

[17] = target: Histone deacetylase 1 (Homo sapiens, UniProt Q13547); assay: Inhibition of recombinant human HDAC1 using Ac-peptide as substrate preincubated for 15 mins followed by substrate addition and measured after 60 mins
Histone deacetylase 1, sequence (Q13547 whole entry): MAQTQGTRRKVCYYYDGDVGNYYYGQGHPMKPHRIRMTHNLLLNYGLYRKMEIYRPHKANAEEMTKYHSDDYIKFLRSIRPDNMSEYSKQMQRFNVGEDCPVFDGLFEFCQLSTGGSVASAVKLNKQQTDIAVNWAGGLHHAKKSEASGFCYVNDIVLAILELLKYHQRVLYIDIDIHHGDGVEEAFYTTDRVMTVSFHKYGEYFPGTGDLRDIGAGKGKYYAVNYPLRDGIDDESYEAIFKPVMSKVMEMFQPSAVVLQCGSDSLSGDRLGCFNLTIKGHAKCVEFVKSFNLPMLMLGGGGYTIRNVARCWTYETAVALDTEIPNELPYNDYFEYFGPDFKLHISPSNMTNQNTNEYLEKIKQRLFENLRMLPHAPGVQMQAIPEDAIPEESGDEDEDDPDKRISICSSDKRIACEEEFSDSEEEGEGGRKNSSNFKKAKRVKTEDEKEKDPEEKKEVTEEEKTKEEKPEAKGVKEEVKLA

[18] = Selectivity index, ratio of IC50 for human HepG2 cells to IC50 for erythrocytic stage of Plasmodium falciparum 3D7; format: toxicity, cell-based; conditions: read-out: Ratio IC50
[19] = system: Plasmodium falciparum; assay: microbe, parasite or virus in culture; conditions: 3D7, 72 h
Description: Antimalarial activity against erythrocytic stage of Plasmodium falciparum 3D7 assessed as inhibition of growth incubated for 72 hrs by SYBR green I based assay

In the case of `Cc1ccc2c(CN[C@H]3CC[C@@H](Nc4ncc(C(=O)NO)cn4)CC3)cn(C)c2c1.Cl`, the Cmax [1] was 803 ng/mL, the inhibition [2] was “Active” and the Vd/F [3] was 16.1 L/kg. The pIC50 [4] was 7.71, the pIC50 [5] was 7.37 and the half-life [6] was 39 min. For the same molecule, the selectivity ratio [7] was 687, the pIC50 [8] was 7.55 and the pIC50 [9] was 7.64. The AUC(0-inf) [10] was 853 ng·h/mL, the Tmax [11] was 15 min and the AUC(0-t) at 24 h [12] was 833 ng·h/mL. For the same molecule, the CLint scaled [13] was 140 mL/min/kg, the Activity [14] was “Active; Only Slight Recurrence Of Parasitemia Was Observed Upon Cessation Of Treatment” and the pIC50 [15] was 7.61. For the same molecule, the pIC50 [16] was 7.22, the pIC50 [17] was 8.31 and the selectivity ratio [18] was 469. It also gave a pIC50 [19] of 7.95.
